Test results reported in US9376420B2 (YUHAN CORPORATION, priority 2012, dated 2016).

Target: T1, human LXRβ (Homo sapiens, UniProt P55055)
T1 construct: expressed in transfected cells; host or cells: HEK293 cells (ATCC CRL-1573), transient transfection with pFA-hLXRβ/GAL4 and pUAS
T1 sequence (P55055 222-460 limits assumed): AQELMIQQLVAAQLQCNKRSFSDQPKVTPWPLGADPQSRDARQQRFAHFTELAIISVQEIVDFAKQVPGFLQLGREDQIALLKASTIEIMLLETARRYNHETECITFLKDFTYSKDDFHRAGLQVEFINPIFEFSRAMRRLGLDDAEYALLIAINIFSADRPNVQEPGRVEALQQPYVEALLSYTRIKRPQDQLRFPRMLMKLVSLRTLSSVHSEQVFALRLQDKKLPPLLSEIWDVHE
Assay: Assay for Transcriptional Activity of LXRβ (GAL4-hLXRβ LBD luciferase reporter, transient transfection)
Assay type: cell-based
Conditions: HEK293 cells transfected with pFA-hLXRβ/GAL4 and pUAS, 24 hours; for Emax: fold value in comparison with the control (DMSO-treated group); for EC50: increase of transcriptional activity of LXRβ, average of three independent tests
Summary of the method: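 EC50 values, averaged over three independent runs, come from a four-parameter fit of 9-point half-log curves spanning 0.01–50 μM. Luciferase output was read in lysed HEK293 cells 24 h after dosing at 37 °C, following transient transfection with a GAL4-human LXRβ LBD fusion plus GAL4-responsive reporter.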

Row | Emax [fold] | EC50 [nM] | SMILES
1 | 56 | 1120 | CCS(=O)(=O)N1CCN(c2ccc(C3CC(C(O)(C(F)(F)F)C(F)(F)F)=NN3c3ccccc3Cl)cc2)CC1 (stereo not drawn) [Example 313, 1-(2-chloro-phenyl)-5-[4-(4-ethanesulfonyl-piperazin-1-yl)-phenyl]-3-[di-(trifluoromethyl)-hydroxy-methyl]-4,5-dihydro-1H-pyrazole]
2 | 42 | 412 | OC(C1=NN(c2ccc(F)cc2F)C(c2ccc(-c3cncnc3)cc2)C1)(C(F)(F)F)C(F)(F)F (stereo not drawn) [Example 372, 1-(2,4-difluoro-phenyl)-5-(4-pyrimidin-5-yl-phenyl)-3-[di-(trifluoromethyl)-hydroxy-methyl]-4,5-dihydro-1H-pyrazole]
3 | 80 | 1390 | CSc1ccc(-c2ccc(C3CC(C(O)(C(F)(F)F)C(F)(F)F)=NN3c3ccccc3Cl)cc2)cn1 (stereo not drawn) [Example 266, 1-(2-chloro-phenyl)-5-[4-(6-methylsulfanyl-pyridin-3-yl)-phenyl]-3-[di-(trifluoromethyl)-hydroxy-methyl]-4,5-dihydro-1H-pyrazole]
4 | 43 | 706 | CN(C)S(=O)(=O)N1CCN(c2ccc(C3CC(C(O)(C(F)(F)F)C(F)(F)F)=NN3c3ccccc3Cl)cc2)CC1 (stereo not drawn) [Example 316, 1-(2-chloro-phenyl)-5-[4-(4-dimethylsulfamoyl-piperazin-1-yl)-phenyl]-3-[di-(trifluoromethyl)-hydroxy-methyl]-4,5-dihydro-1H-pyrazole]
5 | 107 | 304 | CS(=O)(=O)c1cccc(-c2cc(C3CC(C(F)(F)C(F)(F)F)=NN3c3ccc(F)cc3F)ccn2)c1 (stereo not drawn) [Example 188, 1-(2,4-difluoro-phenyl)-5-[2-(3-methanesulfonyl-phenyl)-pyridin-4-yl]-3-pentafluoroethyl-4,5-dihydro-1H-pyrazole]
6 | 100 | 346 | CSc1ccc(-c2ccc(C3CC(C(O)(C(F)(F)F)C(F)(F)F)=NN3c3ccccc3Cl)s2)cn1 (stereo not drawn) [Example 415, 1-(2-chloro-phenyl)-5-{5-[6-(methylsulfanyl)-pyridin-3-yl]-thiophen-2-yl}-3-[di-(trifluoromethyl)-hydroxy-methyl]-4,5-dihydro-1H-pyrazole]
7 | 35 | 170 | CN(CCO)S(=O)(=O)c1ccc(-c2ccc(C3CC(C(O)(C(F)(F)F)C(F)(F)F)=NN3c3ccc(F)cc3F)cc2)cc1 (stereo not drawn) [Example 386, 1-(2,4-difluoro-phenyl)-5-{4′-[(2-hydroxy-ethyl)-methyl-sulfamoyl]-biphenyl-4-yl}-3-[di-(trifluoromethyl)-hydroxy-methyl]-4,5-dihydro-1H-pyrazole]
8 | 46 | 91 | CN(C)S(=O)(=O)c1cccc(-c2cccc(C3CC(C(F)(F)C(F)(F)F)=NN3c3ccc(F)cc3F)c2)c1 (stereo not drawn) [Example 87, 1-(2,4-difluoro-phenyl)-5-(3′-dimethylsulfamoyl-biphenyl-3-yl)-3-pentafluoroethyl-4,5-dihydro-1H-pyrazole]
9 | 59 | 1250 | O=S(=O)(C1CCCC1)N1CC=C(c2ccc(C3CC(C(O)(C(F)(F)F)C(F)(F)F)=NN3c3ccccc3Cl)cc2)CC1 (stereo not drawn) [Example 306, 1-(2-chloro-phenyl)-5-[4-(1-cyclopentanesulfonyl-1,2,3,6-tetrahydropyridin-4-yl)-phenyl]-3-[di-(trifluoromethyl)-hydroxy-methyl]-4,5-dihydro-1H-pyrazole]
10 | 58 | 731 | CN(C)S(=O)(=O)N1CCN(c2ccc(C3CC(C(O)(C(F)(F)F)C(F)(F)F)=NN3c3ccc(F)cc3F)cc2)CC1 (stereo not drawn) [Example 407, 1-(2,4-difluoro-phenyl)-5-[4-(4-dimethylsulfamoyl-piperazin-1-yl)-phenyl]-3-[di-(trifluoromethyl)-hydroxy-methyl]-4,5-dihydro-1H-pyrazole]
11 | 49 | 368 | COc1cc(C)c(-c2ccc(C3CC(C(O)(C(F)(F)F)C(F)(F)F)=NN3c3ccc(F)cc3F)cc2)cn1 (stereo not drawn) [Example 383, 1-(2,4-difluoro-phenyl)-5-[4-(6-methoxy-4-methyl-pyridin-3-yl)-phenyl]-3-[di-(trifluoromethyl)-hydroxy-methyl]-4,5-dihydro-1H-pyrazole]
12 | 26 | 147 | CS(=O)(=O)c1ccc(-c2ccc(C3CC(C(O)(C(F)(F)F)C(F)(F)F)=NN3c3ccc(F)cc3F)cc2)cc1C(F)(F)F (stereo not drawn) [Example 392, 1-(2,4-difluoro-phenyl)-5-(4′-methanesulfonyl-3′-trifluoromethyl-biphenyl-4-yl)-3-[di-(trifluoromethyl)-hydroxy-methyl]-4,5-dihydro-1H-pyrazole]
13 | 55 | 1010 | COc1ncc(-c2ccc(C3CC(C(O)(C(F)(F)F)C(F)(F)F)=NN3c3ccccc3Cl)cc2)cc1C=O (stereo not drawn) [Example 274, 1-(2-chloro-phenyl)-5-[4-(5-formyl-6-methoxy-pyridin-3-yl)-phenyl]-3-[di-(trifluoromethyl)-hydroxy-methyl]-4,5-dihydro-1H-pyrazole]
14 | 72 | 819 | CN(CCO)S(=O)(=O)c1ccc(-c2cccc(C3CC(C(F)(F)C(F)(F)F)=NN3c3ccc(F)cc3F)c2)cc1 (stereo not drawn) [Example 88, 1-(2,4-difluoro-phenyl)-5-{4′-[(2-hydroxy-ethyl)-methyl-sulfamoyl]-biphenyl-3-yl}-3-pentafluoroethyl-4,5-dihydro-1H-pyrazole]
15 | 59 | 2930 | CS(=O)(=O)c1ccc(-c2cncc(C3CC(C(F)(F)C(F)(F)F)=NN3c3ccc(F)cc3F)c2)cc1 (stereo not drawn) [Example 162, 1-(2,4-difluoro-phenyl)-5-[3-(4-methanesulfonyl-phenyl)-pyridin-5-yl]-3-pentafluoroethyl-4,5-dihydro-1H-pyrazole]
16 | 63 | 31 | O=C(c1ccccc1)N1CC=C(c2cccc(C3CC(C(O)(C(F)(F)F)C(F)(F)F)=NN3c3ccccc3Cl)c2)CC1 (stereo not drawn) [Example 235, 5-[3-(1-benzoyl-1,2,3,6-tetrahydropyridin-4-yl)-phenyl]-1-(2-chloro-phenyl)-3-[di-(trifluoromethyl)-hydroxy-methyl]-4,5-dihydro-1H-pyrazole]
17 | 60 | 772 | COc1cccc(-c2ccc(C3CC(C(O)(C(F)(F)F)C(F)(F)F)=NN3c3ccccc3Cl)cn2)c1 (stereo not drawn) [Example 349, 1-(2-chloro-phenyl)-5-[6-(3-methoxy-phenyl)-pyridin-3-yl]-3-[di-(trifluoromethyl)-hydroxy-methyl]-4,5-dihydro-1H-pyrazole]
18 | 47 | 519 | OC(C1=NN(c2ccccc2Cl)C(c2ccc(-c3cc(F)c(-n4cncn4)cc3F)cc2)C1)(C(F)(F)F)C(F)(F)F (stereo not drawn) [Example 287, 1-(2-chloro-phenyl)-5-[2′,5′-difluoro-4′-(1H-1,2,4-triazol-1-yl)-biphenyl-4-yl]-3-[di-(trifluoromethyl)-hydroxy-methyl]-4,5-dihydro-1H-pyrazole]
19 | 102 | 2490 | CSc1ccc(-c2ccnc(C3CC(C(F)(F)C(F)(F)F)=NN3c3ccc(F)cc3F)c2)cc1 (stereo not drawn) [Example 173, 1-(2,4-difluoro-phenyl)-5-[4-(4-methylsulfanyl-phenyl)-pyridin-2-yl]-3-pentafluoroethyl-4,5-dihydro-1H-pyrazole]
20 | 47 | 3350 | CC(=O)c1ccccc1-c1ccc(C2CC(C(O)(C(F)(F)F)C(F)(F)F)=NN2c2ccccc2Cl)cc1 (stereo not drawn) [Example 241, 5-(2′-acetyl-biphenyl-4-yl)-1-(2-chloro-phenyl)-3-[di-(trifluoromethyl)-hydroxy-methyl]-4,5-dihydro-1H-pyrazole]
21 | 25 | 4470 | CN(CCO)S(=O)(=O)c1cccc(-c2cccc(N3N=C(C(F)(F)C(F)(F)F)CC3c3ccc(F)cc3F)c2)c1 (stereo not drawn) [Example 210, 5-(2,4-difluoro-phenyl)-1-{3′-[(2-hydroxy-ethyl)-methyl-sulfamoyl]-biphenyl-3-yl}-3-pentafluoroethyl-4,5-dihydro-1H-pyrazole]
22 | 6 | 1930 | O=S(=O)(C1CC1)N1CC=C(c2cccc(N3N=C(C(O)(C(F)(F)F)C(F)(F)F)CC3c3ccccc3Cl)c2)CC1 (stereo not drawn) [Example 438, 5-(2-chloro-phenyl)-1-[3-(1-cyclopropanesulfonyl-1,2,3,6-tetrahydropyridin-4-yl)-phenyl]-3-[di-(trifluoromethyl)-hydroxy-methyl]-4,5-dihydro-1H-pyrazole]
23 | 62 | 2350 | Oc1cccc(-c2ccc(C3CC(C(O)(C(F)(F)F)C(F)(F)F)=NN3c3ccccc3Cl)cc2)c1 (stereo not drawn) [Example 252, 1-(2-chloro-phenyl)-5-(3′-hydroxy-biphenyl-4-yl)-3-[di-(trifluoromethyl)-hydroxy-methyl]-4,5-dihydro-1H-pyrazole]

Row | SMILES | Emax [fold] | EC50 [nM]
24 | CS(=O)(=O)Nc1cccc(-c2ccc(C3CC(C(O)(C(F)(F)F)C(F)(F)F)=NN3c3ccccc3Cl)cc2)c1 (stereo not drawn) [Example 310, 5-(3′-methanesulfonyl-aminobiphenyl-4-yl)-1-(2-chloro-phenyl)-3-[di-(trifluoromethyl)-hydroxy-methyl]-4,5-dihydro-1H-pyrazole] | 78 | 1150
